Our source for the LD50 values is the CATMoS acute toxicity set (Mansouri et al. 2021).

The data set is described as follows: rat acute oral toxicity. The settings on record: in vivo.

In the case of `O=C(O)c1ccc2c(c1)C(=O)OC2=O`, the LD50 was 2030 mg/kg.

Compound `COCCOCCOCCOC` gave an LD50 of 5390 mg/kg.

`N#CC(Br)(Br)C(N)=O` had an LD50 of 178 mg/kg.

As for `ClC(Cl)C(Cl)Cl`, the LD50 was 200 mg/kg.

The compound `Cc1ccc(N)cc1N` had a 50% lethal dose (LD50) of 73 mg/kg.

The compound `CN(C)C(=O)Nc1cccc(C(F)(F)F)c1` registered a median lethal dose (LD50) of 1450 mg/kg.

`CC=O`: the median lethal dose (LD50) worked out at 661 mg/kg.

The compound `CC1(C)OC(c2ccco2)CN1C(=O)C(Cl)Cl` (stereo not drawn) had an LD50 of 521 mg/kg.

Consider `CCOC=O`, for which the median lethal dose (LD50) came to 1850 mg/kg.

In the case of `CCOP(=S)(OCC)SCSC(C)(C)C`, the LD50 was determined as 1.6 mg/kg.

In the case of `CC(O)CC(C)(C)O` (stereo not drawn), the LD50 came out at 3700 mg/kg.

In the case of `CC(C)C(Nc1ccc(C(F)(F)F)cc1Cl)C(=O)OC(C#N)c1cccc(Oc2ccccc2)c1` (stereo not drawn), the LD50 worked out at 261 mg/kg.

As for `O=C(C=Cc1ccccc1)OCc1ccccc1`, the LD50 worked out at 5380 mg/kg.

On to `CC(C)C1OCC=CCO1`, for which the LD50 was determined as 1000 mg/kg.

In the case of `CCOC(=O)c1cn2nc(OP(=S)(OCC)OCC)cc2nc1C`, the LD50 turned out to be 151 mg/kg.

`NC(=O)NCc1ccccc1` returned an LD50 of 2700 mg/kg.

In turn, `CCc1cccc(C)c1N(C(=O)CCl)C(C)COC` (stereo not drawn) returned a 50% lethal dose (LD50) of 2200 mg/kg.

Compound `COP(=O)(OC)O/C(C)=C/C(=O)N(C)C` displayed an LD50 of 9 mg/kg.

As to `CCCCCCCCCCCCCCCCCC[N+](C)(C)C`, the LD50 worked out at 702 mg/kg.

For `NC1CCCCC1N` (stereo not drawn), the median lethal dose (LD50) was determined as 1170 mg/kg.

For the compound `Clc1ccc(C(Cl)(Cl)Cl)cc1Cl`, the LD50 was 1420 mg/kg.

With `O=C1C2CC=CCC2C(=O)N1SC(Cl)(Cl)Cl` (stereo not drawn), the LD50 came to 9000 mg/kg.

The compound `COC(=O)OC(=O)OC` registered an LD50 of 260 mg/kg.

`COc1ccc(C(c2ccc(OC)cc2)C(Cl)(Cl)Cl)cc1` registered a 50% lethal dose (LD50) of 1860 mg/kg.

`CC(C)(C)C(O)C(Oc1ccc(Cl)cc1)n1cncn1` (stereo not drawn): the LD50 was determined as 689 mg/kg.

With `CCOP(=S)(NC(C)C)Oc1ccccc1C(=O)OC(C)C` (stereo not drawn), the LD50 was determined as 21.1 mg/kg.

Compound `C1CNCCN1` came in with an LD50 of 1980 mg/kg.

In turn, `CCC(C)=NO[Si](ON=C(C)CC)(ON=C(C)CC)ON=C(C)CC` yielded an LD50 of 2450 mg/kg.

In turn, `O=C(Cl)c1ccccc1` showed an LD50 of 2460 mg/kg.

As for `O=C(O)c1cc(Oc2ccc(C(F)(F)F)cc2Cl)ccc1[N+](=O)[O-]`, the LD50 is 1300 mg/kg.

Take `C1CC2OC2CC1C1CO1` (stereo not drawn): the LD50 was found to be 2130 mg/kg.

As for `Cc1cccc([N+](=O)[O-])c1`, the LD50 is 1070 mg/kg.

Compound `CC[C@H]1OC(=O)C[C@@H](O)[C@H](C)[C@@H](O[C@@H]2O[C@H](C)[C@@H](O)[C@H](N(C)C)[C@H]2O)[C@@H](CCN2C[C@H](C)C[C@H](C)C2)C[C@@H](C)C(=O)C=CC(C)=C[C@@H]1CO[C@@H]1O[C@H](C)[C@@H](O)[C@@H](OC)[C@H]1OC` displayed a median lethal dose (LD50) of 800 mg/kg.

`CC(C)(C)c1cc(C(C)(C)C)c(O)c(C(C)(C)C)c1` yielded an LD50 of 1610 mg/kg.

`N[C@@H](Cc1ccc(N(CCCl)CCCl)cc1)C(=O)O` registered a 50% lethal dose (LD50) of 11.2 mg/kg.

In turn, `Clc1cc2c(c(Cl)c1Cl)Oc1c(cc(Cl)c(Cl)c1Cl)O2` registered an LD50 of 0.8 mg/kg.

Consider `O=C(NCc1cccnc1)Nc1ccc([N+](=O)[O-])cc1`, for which the median lethal dose (LD50) is 4.75 mg/kg.

`CCOC(=O)c1ccc(O)cc1` gave a median lethal dose (LD50) of 4300 mg/kg.

For the compound `CCC(=O)OCc1ccccc1`, the LD50 was 3300 mg/kg.

Consider `CCC[Si](OC)(OC)OC`, for which the LD50 was found to be 5170 mg/kg.

As for `ClC=CCCl`, the LD50 was 110 mg/kg.

`CC(=O)CC(=O)Nc1ccccc1Cl` had an LD50 of 4040 mg/kg.

`N#Cc1ccccc1` showed an LD50 of 700 mg/kg.

In turn, `CCCCCCC(=O)O` returned an LD50 of 7000 mg/kg.

For `CCSC(=O)N(CC(C)C)CC(C)C`, the LD50 turned out to be 4000 mg/kg.

Take `C[N+](C)(C)CCO`: the LD50 was 3400 mg/kg.

Compound `CN(C)C(=O)Nc1ccc(Cl)c(Cl)c1` registered a median lethal dose (LD50) of 437 mg/kg.

Turning to `COC(=O)CCS`, the LD50 amounted to 182 mg/kg.

Compound `CC(C#N)CCC#N` (stereo not drawn) yielded an LD50 of 170 mg/kg.

Consider `O=P(OCCCl)(OCCCl)OCCCl`, for which the LD50 turned out to be 466 mg/kg.

The compound `CC(C)N(C(=O)SCC(Cl)=C(Cl)Cl)C(C)C` gave an LD50 of 200 mg/kg.

Take `Oc1cc(Cl)ccc1Cl`: the LD50 amounted to 580 mg/kg.

Consider `CCC(C)C=O` (stereo not drawn), for which the LD50 came out at 6400 mg/kg.

The compound `CCN(CC)C(=O)SCc1ccc(Cl)cc1` displayed an LD50 of 920 mg/kg.

`Cn1cnc2c1c(=O)[nH]c(=O)n2C`: the LD50 was determined as 950 mg/kg.

With `Cl/C=C\CCl`, the LD50 stood at 81.5 mg/kg.

`COC(=O)c1ccccc1` yielded an LD50 of 1180 mg/kg.

`O=C1C=CC(=O)O1` had an LD50 of 318 mg/kg.

Regarding `COC(=O)N(C(=O)N1CO[C@@]2(C(=O)OC)Cc3cc(Cl)ccc3C2=N1)c1ccc(OC(F)(F)F)cc1`, the LD50 is 268 mg/kg.

`O=C1OC(=O)C2C1C1(Cl)C(Cl)=C(Cl)C2(Cl)C1(Cl)Cl` (stereo not drawn) returned an LD50 of 2130 mg/kg.

In turn, `CCCCCCCCCCCCN(C)C` displayed an LD50 of 740 mg/kg.

In the case of `CCN(CC)c1nc(C)cc(OP(=S)(OC)OC)n1`, the LD50 stood at 1250 mg/kg.

In the case of `O=C(Cl)c1ccc(Cl)cc1`, the LD50 amounted to 3150 mg/kg.

Regarding `O=C1c2ccccc2C(=O)N1SC(Cl)(Cl)Cl`, the LD50 was 2640 mg/kg.

Turning to `CNC(=O)Oc1cccc2c1OC(C)(C)C2`, the LD50 was 5.15 mg/kg.

For the compound `O=CC=Cc1ccccc1`, the LD50 is 2200 mg/kg.

In turn, `CS` came in with an LD50 of 116 mg/kg.

As for `O=C(O)c1c(Cl)ccc(Cl)c1Cl`, the LD50 was found to be 650 mg/kg.
